Where “and” joins values, the source holds several entries; their conditions need not be identical. Equal entries are not always repeated.
Legend:
Format in all cases: in vivo
db/db mice [1] = test: Glucose tolerance test (GTT); settings: 150mg/kg
db/db mice [2] = test: Fat depots weight (BAT, iWAT, eWAT; percentage of body weight)
Procedure: (§1) The lean wild type control and the db/db control mice were given equal vehicle volume (0.5% CMC-Na solution). All mice were monitored for food intake, body weight, and fasting blood glucose during the 35-day trial. Glucose tolerance test (GTT) and insulin resistance test (ITT) were performed at 4 and 5 weeks of treatment, respectively. Metabolic analysis was performed at 5 weeks of treatment. At the end of the study, blood samples were taken through the retroorbital venous sinus of mice, fat depots (brown fat, inguinal subcutaneous fat, epididymal fat, perirenal fat and mesenteric fat depot) were dissected, weighed, and immediately frozen in liquid nitrogen and stored at −80 °C until required. Weight of fat depots are expressed in percentage (fat depots weight /bodyweight * 100%).

db/db mice [3] = test: Serum CHO, TG, FFA, LDL-C, HDL-C and ADPN in the fasted state
Procedure: The serum was collected by centrifugation at 3000 × g at 4 °C for 15 min and stored at −80 °C until analysis. TG, TC, LDL-C, HDL-C, and FFA were routinely tested on a Chemray 240 automatic biochemical analyzer (Chemray 240, Shenzhen, China). Serum levels of mouse adiponectin, interleukin6 (IL-6), tumor necrosis factor-α (TNF-α) were measured using commercial enzyme-linked immunosorbent assay (ELISA) kits (Nanjing Jiancheng Bioengineering Institute, Nanjing, China) and according to the manufacturer’s instructions. The levels of IL-6, TNF-α in 3T3-L1 adipocyte culture supernatant were also detected by ELISA.

db/db mice [4] = test: Body weight of db/db mice during 35-day treatment
Procedure: as §1

[5] = 150mg/kg, serum, individual animals
[6] = db/db mice, vs vehicle, BJ 75 and 150 mg/kg, BBR 150 mg/kg, Ibu 150 mg/kg

CC(C)Cc1ccc(C(C)C(=O)O)cc1 (stereo not drawn) [Ibu, Ibuprofen, reference compound]
Blood Glucose (Figure S9p) (db/db mice [1]; time 0, individual animals): 23.3 mmol/L and 18.9 mmol/L and 18.7 mmol/L and 22.0 mmol/L | Blood Glucose (Figure S9p) (db/db mice [1]; time 15, individual animals): 33.3 mmol/L | Blood Glucose (Figure S9p) (db/db mice [1]; time 30, individual animals): 33.3 mmol/L | Blood Glucose (Figure S9p) (db/db mice [1]; time 45, individual animals): 33.3 mmol/L | Blood Glucose (Figure S9p) (db/db mice [1]; time 60, individual animals): 33.3 mmol/L and 31.7 mmol/L and 32.4 mmol/L | Blood Glucose (Figure S9p) (db/db mice [1]; time 90, individual animals): 33.3 mmol/L and 29.2 mmol/L and 22.9 mmol/L | Blood Glucose (Figure S9p) (db/db mice [1]; time 120, individual animals): 30.3 mmol/L and 22.8 mmol/L and 23.9 mmol/L | Fat Depots Weight, BAT (db/db mice [2]; 150mg/kg, individual animals): 1.27 g and 2.12 g and 1.64 g and 1.62 g and 1.65 g and 1.78 g | Fat Depots Weight, eWAT (db/db mice [2]; 150mg/kg, individual animals): 3.22 g and 3.09 g and 3.41 g and 3.43 g and 3.15 g and 3.78 g | Fat Depots Weight, iWAT (db/db mice [2]; 150mg/kg, individual animals): 3.71 g and 3.4 g and 3.36 g and 4.03 g and 3.78 g and 4.01 g | Fat depots weight / body weight (db/db mice [2]; 150mg/kg, individual animals): 19.7809% and 19.1502% and 20.6641% and 20.9797% | Fat depots weight compared with vehicle (db/db mice [2]; db/db mice, BJ 75 and 150 mg/kg, BBR 150 mg/kg, Ibu 150 mg/kg): not significantly different | CHO (db/db mice [3]; [5]): 4.079 mmol/L and 3.798 mmol/L and 4.949 mmol/L and 5.236 mmol/L and 4.727 mmol/L and 4.145 mmol/L | FFA (db/db mice [3]; [5]): 912.261 µmol/L and 870.411 µmol/L and 861.968 µmol/L and 886.564 µmol/L and 965.859 µmol/L and 978.341 µmol/L | HDL-C (db/db mice [3]; [5]): 1.7462 mmol/L and 1.7831 mmol/L and 1.9083 mmol/L and 2.0311 mmol/L | LDL-C (db/db mice [3]; [5]): 5.9624 mmol/L and 6.6672 mmol/L and 7.0004 mmol/L and 6.9602 mmol/L and 5.8098 mmol/L and 6.6236 mmol/L | Mouse ADPN (db/db mice [3]; [5]): 593.01 ng/mL and 440.43 ng/mL and 462.23 ng/mL and 556.39 ng/mL and 491.43 ng/mL and 431.93 ng/mL | TG (db/db mice [3]; [5]): 1.761 mmol/L and 1.861 mmol/L and 1.959 mmol/L and 1.91 mmol/L and 1.579 mmol/L and 1.279 mmol/L | Serum levels of CHO, TG, FFA and LDL-C (db/db mice [3]; [6]): not significantly different | Serum levels of HDL-C and adiponectin (ADPN) (db/db mice [3]; [6]): not significantly different | Body weight (db/db mice [4]; 150mg/kg, day 1, individual animals, in g (unit assumed)): 38.2 and 39.7 | Body weight (db/db mice [4]; 150mg/kg, day 4, individual animals, in g (unit assumed)): 40.6 and 39.7 | Body weight (db/db mice [4]; 150mg/kg, day 19, individual animals, in g (unit assumed)): 48.2 | Body weight (db/db mice [4]; 150mg/kg, day 22, individual animals, in g (unit assumed)): 50.5 | Body weight (db/db mice [4]; 150mg/kg, day 25, individual animals, in g (unit assumed)): 51.6 and 48.5 | Body weight (db/db mice [4]; 150mg/kg, day 28, individual animals, in g (unit assumed)): 49.3 and 49.1 and 52.6 and 48.8 and 51.3 | Body weight (db/db mice [4]; 150mg/kg, day 31, individual animals, in g (unit assumed)): 48.5 and 50.3 and 53 and 48.8 and 51.4 | Body weight (db/db mice [4]; 150mg/kg, day 34, individual animals, in g (unit assumed)): 51.2 and 54.1 and 50.2 and 52.2 | Body weight gain (day 34 minus day 1) (db/db mice [4]; 150mg/kg, individual animals, in g (unit assumed)): 12.5 and 9.1 and 9.9 and 9.2 and 12.8 and 12 | Body weight compared with vehicle (db/db mice [4]; db/db mice, 5 weeks, BJ 75 and 150 mg/kg, BBR 150 mg/kg, Ibu 150 mg/kg): did not observe any significant difference in body weight

From paper PMC9374667 (Communications Biology, 2022)
